# Measured values: patent US7507739B2, “6-[(substituted)phenyl]triazolopyrimidines as anticancer agents” (Wyeth, priority 2003, dated 2009)
# Marks after values point to notes of the source that are not given here.
# Experiments:
# [1] = test system: U87-MG Human Glioblastoma; assay: Human tumor xenograft test, U87-MG; format: in vivo, athymic mice
# Protocol: (§1) The ability of compounds of this invention to inhibit tumor growth in animals is studied in the athymic mouse xenograft standard pharmacological test. Female nu/nu mice in an outbred albino background are obtained from Charles River Laboratories (Wilmington, Mass.). Animals are injected subcutaneously on the flank with the desired tumor cell suspension. Several days later, mice with tumors of approximately 150 mm^3 are selected from those injected (staged) and randomly distributed into groups of 5-10. The day of staging is called day 0. Compounds of the invention, usually formulated in saline (exceptions are noted in tables), are administered to animals by intravenous injection or oral gavage on various schedules starting on day 0 or 1, as noted in the tables. The control group in each experiment is dosed with vehicle on the same schedule. Tumor size is measured every 3-7 days with calipers in two orthogonal dimensions, and tumor volume is calculated from the formula volume=[(length×width^2)/2].
# (§2) Tumor/Control (T/C) is obtained by dividing the mean tumor volume of the treated group by the mean tumor volume of the control group on each measurement day. A treatment dose is defined as active if it produced a statistically significant T/C of 0.50 or less. A p value≦0.05, determined by one-side Student's t-test, is required for statistical significance. A treatment dose is defined as toxic if more than 10% of the animals died from a compound-related toxicity.
# MAP-rich tubulin = assay: Tubulin polymerization test with MAP-rich tubulin; format: biochemical, bovine; settings: 0.3 μM compound, 20 min, fold enhancement over control
# Protocol: Medium is RPMI-1640 with L-glutamine, supplemented with 10% heat-inactivated fetal calf serum, 100 units/ml penicillin, and 100 μg/ml streptomycin (Gibco, Grand Island, N.Y.). Microtubule-associated protein (MAP)-rich tubulin, containing about 70% tubulin and 30% MAPs (#ML113), and highly purified tubulin (>99% pure, #TL238), both from bovine brain, are obtained from Cytoskeleton, Inc., Denver, Colo. PEM buffer (80 mM piperazine-N,N′-bis[2-ethanesulfonic acid], pH 6.9, 1 mM ethylene glycol-bis(β-aminoethyl ether)-N,N,N′,N′-tetraacetic acid, 1 mM magnesium chloride) and guanosine 5′-triphosphate (GTP) are also obtained from Cytoskeleton. [3H]paclitaxel, specific activity 14.7 Ci/mmol, is purchased from Moravek Biochemicals (Brea, Calif.). [^3H]vinblastine, specific activity 9.60 Ci/mmol and MicroSpin G-50 columns are obtained from Amersham Biosciences (Piscataway, N.J.). […] Other reagents are obtained from Sigma (St. Louis, Mo.).
# Two variations of this procedure are done, one using MAP-rich tubulin and one using pure tubulin.
# MAP-rich tubulin is dissolved in ice-cold PEM buffer containing 1 mM GTP (GPEM buffer) at a concentration of 1.3 mg/mL. The solution is centrifuged at top speed in an Eppendorf model 5415C microcentrifuge (Brinkmann Instruments, Westbury, N.Y.) for 10 min at […] immediately before use. The tubulin solution is added to wells of a ½-area 96-well plate (Costar No. 3696, Corning, Inc., Corning, N.Y.) already containing the compounds of interest. Each compound is tested in duplicate at a final concentration of 0.3 μM in a volume of 110 μL per well. The final DMSO concentration in all wells is 0.3%. Control reactions, which received compound solvent only, are done in quadruplicate. The plate is put in a SpectraMax Plus plate reader (Molecular Devices Corp. Sunnyvale, Calif.) thermostated at 24° and the absorbance of each well at 340 nm, a measure of the appearance of turbidity due to tubulin polymer formation, is determined every minute for 60 minutes. The absorbance at time 0 for each well is subtracted from each of the subsequent absorbance readings for that well, and then the duplicates are averaged.
# In this assay, control reactions with MAP-rich tubulin show an S-shaped absorbance profile characterized by three phases: first, a lag phase during which no change in absorbance occurs; second, a polymerization phase in which absorbance increases; and third, a plateau phase in which absorbance has reached a maximum and little or no further change occurs. Polymerization enhancers such as paclitaxel and docetaxel shorten or eliminate the lag phase, increase the rate of the polymerization phase, and often increase the height of the plateau. […] The compounds of this invention have a taxane-like effect on the polymerization reaction. This has been expressed quantitatively in Table 5 by dividing the mean A340 of each sample at 20 min by the mean A340 of the control at 20 min to give a fold enhancement over control. […] Examples of this invention have factors ranging up to 8.1, with the majority in the 5 to 6-fold range.
# [2] = test system: DLD1 Human Colon Carcinoma; assay: Human tumor xenograft test, DLD1; format: in vivo; settings: DLD1, 20 mg/kg intravenously on days 1, 5, 9, and 13
# Protocol: as §1, §2
# COLO 205 cells = assay: MTS cytotoxicity test with COLO 205 cells; format: cell-based, human; settings: Homo sapiens, COLO 205, 72 h, 3 days
# Method in brief: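 COLO 205 human colon carcinoma cells, 1000 per well, exposed 3 days at 37° C to nine 2-fold dilutions, typical final top concentration 5 μM. MTS absorbance normalized to time-0 plate; IC50 is concentration giving colour yield midway between untreated and fully killed controls.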
# [3] = U87-MG, 2.5 mg/kg PO, day 0, vehicle Klucel
# [4] = U87-MG, 5 mg/kg PO, day 0, vehicle Klucel
# [5] = U87-MG, 10 mg/kg PO, day 0, vehicle Klucel
# [6] = U87-MG, 20 mg/kg PO, day 0, vehicle Klucel
# [7] = U87-MG, 30 mg/kg PO, day 0, vehicle Klucel
# [8] = U87-MG, 20 mg/kg PO, days 1, 5, 9
smiles,measurement,setting,value
"CNCCCOc1cc(F)c(-c2c(Cl)nc3ncnn3c2N[C@@H](C)C(F)(F)F)c(F)c1 [Example 2, 5-Chloro-6-{2,6-difluoro-4-[3-(methylamino)propoxy]phenyl}-N-[(1S)-2,2,2-trifluoro-1-methylethyl][1,2,4]triazolo[1,5-a]pyrimidin-7-amine]",T/C on day 0,[1]; [3],1.00
same,T/C on day 4,[1]; [3],0.84
same,T/C on day 8,[1]; [3],0.82
same,T/C on day 11,[1]; [3],0.74*
same,T/C on day 14,[1]; [3],0.74*
same,T/C on day 0,[1]; [4],1.02
same,T/C on day 4,[1]; [4],0.71*
same,T/C on day 8,[1]; [4],0.75*
same,T/C on day 11,[1]; [4],0.65**
same,T/C on day 14,[1]; [4],0.68**
same,T/C on day 0,[1]; [5],1.00
same,T/C on day 4,[1]; [5],0.60**
same,T/C on day 8,[1]; [5],0.51**
same,T/C on day 11,[1]; [5],0.40**
same,T/C on day 14,[1]; [5],0.41**
same,T/C on day 0,[1]; [6],0.97
same,T/C on day 4,[1]; [6],0.59**
same,T/C on day 8,[1]; [6],0.38**
same,T/C on day 11,[1]; [6],0.28**
same,T/C on day 14,[1]; [6],0.30**
same,T/C on day 0,[1]; [7],0.95
same,T/C on day 4,[1]; [7],0.41**
same,T/C on day 8,[1]; [7],0.24**
same,T/C on day 11,[1]; [7],0.19**
same,T/C on day 14,[1]; [7],0.23**
same,A340 Compound/A340 Control,MAP-rich tubulin,5.8
same,tumor growth inhibition (activity call),[2],active
same,IC50,COLO 205 cells,32 nM
"C[C@H](Nc1c(-c2c(F)cc(OCCCN3CCCC3)cc2F)c(Cl)nc2ncnn12)C(F)(F)F [Example 9, 5-Chloro-6-[2,6-difluoro-4-(3-pyrrolidin-1-ylpropoxy)phenyl]-N-[(1S)-2,2,2-trifluoro-1-methylethyl][1,2,4]triazolo[1,5-a]pyrimidin-7-amine]",T/C on day 0,[1]; [8],1.04
same,T/C on day 3,[1]; [8],0.93
same,T/C on day 7,[1]; [8],0.70
same,T/C on day 10,[1]; [8],0.50**
same,T/C on day 13,[1]; [8],0.34**
same,T/C on day 17,[1]; [8],0.45**
same,tumor growth inhibition (activity call),"[1]; U-87 MG, oral dosing, 20 mg/kg",active
same,A340 Compound/A340 Control,MAP-rich tubulin,5.8
same,IC50,COLO 205 cells,44 nM
